Measured values from US5539127A, “7-substituted oxa- or azasteroid compound” (Teikoku Hormone Mfg. Co., Ltd., priority 1992, dated 1996).
Where a name gives a salt, the structure may show the parent alone.

Assays:
[1] = tested on: aromatase; test: Assay of aromatase-inhibiting action (in vivo), inhibition of DHEAS-induced cornification of vaginal smear; set-up: species or system rat; settings: for Inhibition rate (cornification-inhibiting action against cornification in the solvent administration group): mature female rats after enucleation of the pituitary gland, 2 mg/kg test compound orally with 16 mg/kg DHEAS once a day, 4 days, smears of day 3 to 5
Protocol: (2) Assay of aromatase-inhibiting action (in vivo)
Aromatase-inhibiting action was assayed according to the method developed by G. H. Deckers and A. H. W. M. Schuurs (Journal of Steroid Biochemistry,32, 625-631, (1989)).
Namely, groups of mature female rats at one week after enucleation of the pituitary gland were used, each group consisting of 8 to 10 animals. 16 mg/kg of dehydroepiandrosterone sulfate (DHEAS) and 5 ml/kg of a solvent (physiological saline containing 2% polysorbate 80), or DHEAS and 2 mg/kg of a test compound suspended in the solvent were orally administered to each rat once a day for the succeeding 4 days. For 6 days starting from the next day of the first administration, vaginal smear was sampled and observed by a microscope after being stained with Giemsa staining solution. Cornification of the vaginal smear with DHEAS was observed from 3 days after the first administration, and its action disappeared 6 days thereafter. Therefore, the cornification smear number was assumed to be the total of 3 days from the third day to fifth day after the initiation of administration. A cornification-inhibiting action with a test compound was expressed as the rate against cornification in the solvent administration group.
In this connection, the cornification of vaginal smear is caused by estrogens biosynthesized from DHEAS by aromatase, and therefore, when aromatase is inhibited, inhibition of cornification is observed.

[2] = biological target: T1, aromatase (Homo sapiens, UniProt P11511); test: Assay of aromatase-inhibiting action (in vitro), human placental microsome, 3H2O release from [1,2-3H]androstenedione; format: biochemical; settings: 2 μM [1,2-3H]androstenedione, 180 μM NADPH, pH 7.5, 37° C., 20 minutes
T1 construct: 150 μg of freeze dried human placental microsome; from tissue; host or cells: human placenta, microsomes
T1 sequence (P11511 1-503): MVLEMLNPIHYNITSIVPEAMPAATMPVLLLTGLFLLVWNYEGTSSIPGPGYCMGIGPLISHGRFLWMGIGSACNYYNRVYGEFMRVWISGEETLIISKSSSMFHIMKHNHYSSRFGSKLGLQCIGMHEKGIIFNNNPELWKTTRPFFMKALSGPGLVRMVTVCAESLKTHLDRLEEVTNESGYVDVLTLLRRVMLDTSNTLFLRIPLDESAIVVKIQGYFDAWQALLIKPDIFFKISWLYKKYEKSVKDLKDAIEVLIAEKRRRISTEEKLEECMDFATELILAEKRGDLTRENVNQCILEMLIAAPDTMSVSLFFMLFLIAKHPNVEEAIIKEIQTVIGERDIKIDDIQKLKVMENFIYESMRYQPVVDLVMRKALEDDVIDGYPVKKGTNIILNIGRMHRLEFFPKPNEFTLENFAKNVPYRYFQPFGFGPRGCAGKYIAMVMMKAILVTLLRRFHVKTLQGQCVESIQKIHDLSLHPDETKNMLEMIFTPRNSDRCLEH
Protocol: (1) Assay of aromatase-inhibiting action (in vitro)
Human placental microsome (centrifuged at 105,000×g for 60 minutes) was prepared, according to the method of Ryan (The Journal of Biological Chemistry, 234, 268-272, (1959)). The microsome was used after it was washed twice with 0.5 mM dithiothreitol solution, freeze dried, and stored at -20° C.
The aromatase-inhibiting action was assayed according to the method developed by Tompson and Siiteri (Journal of Biological Chemistry, 249, 5373-5378, (1974)). Namely, the method comprises quantitatively determining ^3 H2 O released through aromatization of [1,2-^3 H]androstenedione. The experiment using the enzyme was performed in 67 mM phosphate buffer (pH 7.5) so that the final amount of the incubation solution could be 0.5 ml. The incubation solution contained 180 μM of NADPH, 2μM of [1,2-^3 H]androstenedione, 150 μg of freeze dried human placental microsome, 25 μl of methanol and a test compound in various concentrations. Incubation was performed in the air at 37° C. for 20 minutes, the reaction was terminated with addition of 3 ml of chloroform, and the mixture was stirred for 40 seconds. The mixture was centrifuged at 700×g for 10 minutes, 0.3 ml of the aqueous solution was taken from the supernatant, the scintillation mixture was added, and the amount of ^3 H2 O formed was measured.

[3] = 16 mg/kg DHEAS orally, once a day, rats

With `C[C@]12CC[C@H](OS(=O)(=O)O)CC1=CC[C@@H]1[C@@H]2CC[C@]2(C)C(=O)CC[C@@H]12` [DHEAS, dehydroepiandrosterone sulfate, reference compound] as the compound, how does the “Cornification of the vaginal smear with DHEAS observed from (days after the first administration)” value [1, 3] read?
Its value is 3 days.

What about the “disappearance of the cornification action of DHEAS (days thereafter)” value [1, 3] of the same compound?
The value was 6 days.

How did the IC50 [2] turn out when `C[C@]12CCC(=O)C=C1C[C@@H](Sc1ccc(N)cc1)[C@@H]1[C@@H]2CC[C@]2(C)C(=O)OCC[C@@H]12` [Example 1, 7α-[(4-aminophenyl)thio]-D-homo-17-oxaandrost-4-ene-3,17a-dione] was run?
The IC50 was 2300 nM.

Which results are given for `C[C@]12CC[C@H]3[C@@H]([C@H](S)CC4=CC(=O)C=C[C@@]43C)[C@@H]1CCOC2` [Example 8, 7α-mercapto-D-homo-17-oxaandrosta-1,4-dien-3-one]?
Inhibition rate (cornification-inhibiting action against cornification in the solvent administration group) [1]: 68.2 ± 13.6%; IC50 [2]: 400 nM

Which results are given for `C[C@]12C=CC(=O)C=C1C[C@@H](S)[C@@H]1[C@@H]2CC[C@]2(C)C(=O)OCC[C@@H]12` [Example 16, 7α-mercapto-D-homo-17-oxaandrosta-1,4-diene-3,17a-dione]?
Inhibition rate (cornification-inhibiting action against cornification in the solvent administration group) [1]: 70.6 ± 15.6%; IC50 [2]: 500 nM

How did the “Inhibition rate (cornification-inhibiting action against cornification in the solvent administration group)” value [1] turn out when `CC(=O)S[C@H]1CC(=O)C=C2C[C@@H](SC(C)=O)[C@@H]3[C@H](CC[C@]4(C)C(=O)OCC[C@@H]34)[C@]21C` [Example 43, 1α,7α-bis(acetylthio)-D-homo-17-oxaandrost-4-ene-3,17a-dione] was run?
The value was 70.6 ± 15.6%.
